Measured values from article PMC9181698 (International Journal of Molecular Sciences, 2022).

How the values were obtained:
[1] = test system: SIV pseudotyped with the SARS-CoV-2 spike protein (Alpha); settings: SIV pseudotyped with the spike protein (Alpha, 48 h)
[2] = test system: SIV pseudotyped with the SARS-CoV-2 spike protein (wt); settings: SIV pseudotyped with the spike protein (wt, 48 h)
[3] = test system: SIV pseudotyped with the SARS-CoV-2 spike protein (Delta); settings: SIV pseudotyped with the spike protein (Delta, 48 h)
[4] = test system: SIV pseudotyped with the SARS-CoV-2 spike protein (Omicron); settings: SIV pseudotyped with the spike protein (Omicron, 48 h)
[5] = test system: ACE2–RBD interaction (Omicron variant RBD-Fc / His-tagged hACE2); type: biochemical, SARS-CoV-2; settings: read-out: Inhibition of ACE2–RBD Interaction
[6] = test system: SIV pseudotyped with the SARS-CoV-2 spike protein (Beta); settings: SIV pseudotyped with the spike protein (Beta, 48 h)
[7] = test system: pseudovirus with wt SARS-CoV-2 spike carrying E484K + N501Y
[8] = test system: pseudovirus with wt SARS-CoV-2 spike carrying K417N

## CC[C@H](C)[C@H](NC(=O)[C@H](CC(C)C)NC(=O)[C@H](CC(=O)O)NC(=O)[C@H](CO)NC(=O)[C@@H](NC(=O)[C@H](CCCNC(=N)N)NC(=O)[C@H](CCSC)NC(=O)[C@H](CO)NC(=O)[C@H](C)NC(=O)[C@H](CCC(=O)O)NC(=O)[C@H](C)NC(=O)[C@H](Cc1c[nH]cn1)NC(=O)CNC(=O)[C@H](CC(C)C)NC(=O)[C@H](CCC(=O)O)NC(=O)[C@H](CC(=O)O)NC(=O)[C@H](CC(C)C)NC(=O)[C@H](CC(C)C)NC(=O)[C@H](CCCNC(=N)N)NC(=O)[C@H](CCSC)NC(=O)[C@@H](NC(=O)[C@H](CCC(=O)O)NC(=O)[C@H](Cc1ccc(O)cc1)NC(=O)[C@@H](NC(=O)[C@H](CCCCN)NC(=O)[C@H](CCC(N)=O)NC(=O)[C@H](CC(C)C)NC(=O)[C@@H](NC(=O)[C@H](Cc1c[nH]c2ccccc12)NC(=O)[C@H](CCC(=O)O)NC(=O)[C@H](CCCCN)NC(=O)[C@H](CC(=O)O)NC(=O)COCCOCCNC(=O)CCCC[C@@H]1SC[C@@H]2NC(=O)N[C@@H]21)[C@@H](C)CC)[C@@H](C)CC)[C@@H](C)CC)C(C)C)C(=O)N[C@@H](Cc1ccc(O)cc1)C(=O)N[C@@H](CCC(=O)O)C(=O)N[C@@H](Cc1ccccc1)C(N)=O [LW32.4]
[1]
  IC50: > 500 nM
[2]
  IC50: 11.8 ± 3.5 nM
[3]
  IC50: 10.2 ± 1.78 nM
[4]
  IC50: > 500 nM
[5]
  IC50: […]
[6]
  IC50: > 500 nM

## CC[C@H](C)[C@@H]1NC(=O)[C@H](CC(C)C)NC(=O)[C@H](CC(=O)O)NC(=O)[C@H](CO)NC(=O)[C@H](C(C)C)NC(=O)[C@H](CCCNC(=N)N)NC(=O)[C@H](CCSC)NC(=O)[C@H](CO)NC(=O)[C@H](C)NC(=O)[C@H](CCC(=O)O)NC(=O)[C@H](C)NC(=O)[C@H](Cc2c[nH]cn2)NC(=O)CNC(=O)[C@H](CC(C)C)NC(=O)[C@H](CCC(=O)O)NC(=O)[C@H](CC(=O)O)NC(=O)[C@H](CC(C)C)NC(=O)[C@H](CC(C)C)NC(=O)[C@H](CCCNC(=N)N)NC(=O)[C@H](CCSC)NC(=O)[C@H]([C@@H](C)CC)NC(=O)[C@H](CCC(=O)O)NC(=O)[C@H](Cc2ccc(O)cc2)NC(=O)[C@H]([C@@H](C)CC)NC(=O)[C@H](CCCCN)NC(=O)[C@H](CCC(N)=O)NC(=O)[C@H](CC(C)C)NC(=O)[C@H]([C@@H](C)CC)NC(=O)[C@H](Cc2c[nH]c3ccccc23)NC(=O)[C@H](CCC(=O)O)NC(=O)[C@@H](NC(=O)COCCOCCNC(=O)CCCC[C@@H]2SC[C@@H]3NC(=O)N[C@@H]32)CSSC[C@@H](C(N)=O)NC(=O)[C@H](CCCCN)NC(=O)[C@H](CCCCN)NC(=O)[C@H](CCSC)NC(=O)[C@H](Cc2ccccc2)NC(=O)[C@H](CCC(=O)O)NC(=O)[C@H](Cc2ccc(O)cc2)NC1=O [LW25.13]
[1]
  IC50: 1.35 ± 0.08 nM
[2]
  IC50: 0.63 ± 0.24 nM
[7]
  Reduction in inhibitory activity (virus neutralization) by combination of E484K and N501N: approximately three
[3]
  IC50: 0.68 ± 0.12 nM
[4]
  IC50: > 500 nM
[5]
  IC50: […]
[6]
  IC50: > 500 nM

## CC[C@H](C)[C@H](NC(=O)[C@H](CC(C)C)NC(=O)[C@H](CC(=O)O)NC(=O)[C@H](CO)NC(=O)[C@@H](NC(=O)[C@H](CCCNC(=N)N)NC(=O)[C@H](CCSC)NC(=O)[C@H](CO)NC(=O)[C@H](C)NC(=O)[C@H](CCC(=O)O)NC(=O)[C@H](C)NC(=O)[C@H](Cc1c[nH]cn1)NC(=O)CNC(=O)[C@H](CC(C)C)NC(=O)[C@H](CCC(=O)O)NC(=O)[C@H](CC(=O)O)NC(=O)[C@H](CC(C)C)NC(=O)[C@H](CC(C)C)NC(=O)[C@H](CCCNC(=N)N)NC(=O)[C@H](CCSC)NC(=O)[C@@H](NC(=O)[C@H](CCC(=O)O)NC(=O)[C@H](Cc1ccc(O)cc1)NC(=O)[C@@H](NC(=O)[C@H](CCCCN)NC(=O)[C@H](CCC(N)=O)NC(=O)[C@H](CC(C)C)NC(=O)[C@@H](NC(=O)[C@H](Cc1c[nH]c2ccccc12)NC(=O)[C@H](CCC(=O)O)NC(=O)[C@H](CCCCN)NC(=O)[C@H](CC(=O)O)NC(=O)COCCOCCNC(=O)CCCC[C@@H]1SC[C@@H]2NC(=O)N[C@@H]21)[C@@H](C)CC)[C@@H](C)CC)[C@@H](C)CC)C(C)C)C(=O)N[C@@H](Cc1ccc(O)cc1)C(=O)N[C@@H](CCC(=O)O)C(=O)N[C@@H](Cc1ccccc1)C(=O)N[C@@H](CCSC)C(=O)N[C@@H](CCCCN)C(N)=O [LW32.2]
[1]
  IC50: 6.15 ± 5.96 nM
[2]
  IC50: 0.93 ± 0.24 nM
[8]
  Decrease of susceptibility of the virus to inhibition by mutation K417N, factor: 25
[7]
  Reduction in inhibitory activity (virus neutralization) by combination of E484K and N501N: nine
[3]
  IC50: 1.54 ± 0.23 nM
[4]
  IC50: > 500 nM
[5]
  IC50: […]
[6]
  IC50: > 500 nM

## CC[C@H](C)[C@H](NC(=O)[C@H](CC(C)C)NC(=O)[C@H](CC(=O)O)NC(=O)[C@H](CO)NC(=O)[C@@H](NC(=O)[C@H](CCCNC(=N)N)NC(=O)[C@H](CCSC)NC(=O)[C@H](CO)NC(=O)[C@H](C)NC(=O)[C@H](CCC(=O)O)NC(=O)[C@H](C)NC(=O)[C@H](Cc1c[nH]cn1)NC(=O)CNC(=O)[C@H](CC(C)C)NC(=O)[C@H](CCC(=O)O)NC(=O)[C@H](CC(=O)O)NC(=O)[C@H](CC(C)C)NC(=O)[C@H](CC(C)C)NC(=O)[C@H](CCCNC(=N)N)NC(=O)[C@H](CCSC)NC(=O)[C@@H](NC(=O)[C@H](CCC(=O)O)NC(=O)[C@H](Cc1ccc(O)cc1)NC(=O)[C@@H](NC(=O)[C@H](CCCCN)NC(=O)[C@H](CCC(N)=O)NC(=O)[C@H](CC(C)C)NC(=O)[C@@H](NC(=O)[C@H](Cc1c[nH]c2ccccc12)NC(=O)[C@H](CCC(=O)O)NC(=O)[C@H](CCCCN)NC(=O)[C@H](CC(=O)O)NC(=O)COCCOCCNC(=O)COCCOCCNC(=O)CCCC[C@@H]1SC[C@@H]2NC(=O)N[C@@H]21)[C@@H](C)CC)[C@@H](C)CC)[C@@H](C)CC)C(C)C)C(=O)N[C@@H](Cc1ccc(O)cc1)C(=O)N[C@@H](CCC(=O)O)C(=O)N[C@@H](Cc1ccccc1)C(=O)N[C@@H](CCSC)C(=O)N[C@@H](CCCCN)C(=O)N[C@@H](CCCCN)C(=O)NCC(=O)N[C@@H](CC(=O)O)C(=O)N[C@@H](CCC(=O)O)C(=O)N[C@@H](CCCNC(=N)N)C(=O)N[C@@H](CC(C)C)C(=O)N[C@@H](CC(C)C)C(=O)N[C@@H](CCC(=O)O)C(=O)N[C@@H](CCC(=O)O)C(=O)N[C@@H](C)C(=O)N[C@@H](CCC(=O)O)C(=O)N[C@@H](CCCNC(=N)N)C(=O)N[C@@H](CC(C)C)C(=O)N[C@@H](CC(C)C)C(=O)N[C@@H](CCC(=O)O)C(=O)N[C@@H](CCC(=O)O)C(=O)N[C@H](C(=O)N[C@@H](CCC(=O)O)C(N)=O)C(C)C [LW25.3]
[1]
  IC50: 13.3 ± 4.55 nM
[2]
  IC50: 5.94 ± 4.17 nM
[3]
  IC50: 4.52 ± 0.43 nM
[4]
  IC50: > 500 nM
[6]
  IC50: > 500 nM

## CC[C@H](C)[C@H](NC(=O)[C@H](CC(C)C)NC(=O)[C@H](CC(=O)O)NC(=O)[C@H](CO)NC(=O)[C@@H](NC(=O)[C@H](CCCNC(=N)N)NC(=O)[C@H](CCSC)NC(=O)[C@H](CO)NC(=O)[C@H](C)NC(=O)[C@H](CCC(=O)O)NC(=O)[C@H](C)NC(=O)[C@H](Cc1c[nH]cn1)NC(=O)CNC(=O)[C@H](CC(C)C)NC(=O)[C@H](CCC(=O)O)NC(=O)[C@H](CC(=O)O)NC(=O)[C@H](CC(C)C)NC(=O)[C@H](CC(C)C)NC(=O)[C@H](CCCNC(=N)N)NC(=O)[C@H](CCSC)NC(=O)[C@@H](NC(=O)[C@H](CCC(=O)O)NC(=O)[C@H](Cc1ccc(O)cc1)NC(=O)[C@@H](NC(=O)[C@H](CCCCN)NC(=O)[C@H](CCC(N)=O)NC(=O)[C@H](CC(C)C)NC(=O)[C@@H](NC(=O)[C@H](Cc1c[nH]c2ccccc12)NC(=O)[C@H](CCC(=O)O)NC(=O)[C@H](CCCCN)NC(=O)[C@H](CC(=O)O)NC(=O)COCCOCCNC(=O)CCCC[C@@H]1SC[C@@H]2NC(=O)N[C@@H]21)[C@@H](C)CC)[C@@H](C)CC)[C@@H](C)CC)C(C)C)C(=O)N[C@@H](Cc1ccc(O)cc1)C(=O)N[C@@H](CCC(=O)O)C(=O)N[C@@H](Cc1ccccc1)C(=O)N[C@@H](CCSC)C(=O)N[C@@H](CCCCN)C(=O)N[C@@H](CCCCN)C(=O)NCC(N)=O [LW25.1]
[1]
  IC50: 8.38 ± 3.31 nM
[2]
  IC50: 1.7 ± 0.11 nM
[3]
  IC50: 0.71 ± 0.23 nM
[4]
  IC50: > 500 nM
[5]
  IC50: […]
[6]
  IC50: > 500 nM
